From BindingDB's records for patent US12065447 (Shanghai Institute of Materia Medica, 2024)

biological target: T1, Receptor-interacting serine/threonine-protein kinase 1 (Homo sapiens, UniProt Q13546); assay: Cell Viability Test
T1 sequence (Q13546 whole entry): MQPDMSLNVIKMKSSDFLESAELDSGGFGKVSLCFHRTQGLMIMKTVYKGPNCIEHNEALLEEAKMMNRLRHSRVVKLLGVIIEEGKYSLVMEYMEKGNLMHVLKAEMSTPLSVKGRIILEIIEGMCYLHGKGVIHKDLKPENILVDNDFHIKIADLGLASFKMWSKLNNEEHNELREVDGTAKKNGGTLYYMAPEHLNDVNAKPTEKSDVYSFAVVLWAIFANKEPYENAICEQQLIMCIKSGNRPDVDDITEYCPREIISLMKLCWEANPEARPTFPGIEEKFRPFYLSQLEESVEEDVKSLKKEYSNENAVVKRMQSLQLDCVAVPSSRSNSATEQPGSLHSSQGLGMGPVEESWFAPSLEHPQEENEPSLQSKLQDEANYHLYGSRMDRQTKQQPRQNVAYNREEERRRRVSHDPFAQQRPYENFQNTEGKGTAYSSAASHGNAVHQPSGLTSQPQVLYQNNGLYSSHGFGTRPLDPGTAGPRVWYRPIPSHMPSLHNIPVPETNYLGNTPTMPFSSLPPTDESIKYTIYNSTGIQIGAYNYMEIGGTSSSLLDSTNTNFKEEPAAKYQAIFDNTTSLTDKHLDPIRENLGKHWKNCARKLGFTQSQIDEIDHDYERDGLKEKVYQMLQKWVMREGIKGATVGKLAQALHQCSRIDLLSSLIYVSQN
Excerpt: TNFalpha induced U937 cell programmed necroptosis system was used to screen for compounds with RIP 1 kinase inhibitory activity.

Going from Cc1c(C#CC2(O)COC2)sc2c1SC[C@H](NC(=O)c1nnc(Cc3ccccc3)[nH]1)C(=O)N2C [US12065447, Compound ZB-R-87] to Cc1c(C#CC2CC2)sc2c1SC[C@H](NC(=O)c1nnc(Cc3ccccc3)[nH]1)C(=O)N2C [US12065447, Compound ZB-R-45], the IC50 rises from 0.2 nM to 8.13 nM (41-fold). The first is the more potent here.

Compared with Cc1c(C#CC2CCOCC2)sc2c1SC[C@H](NC(=O)c1nnc(Cc3ccccc3)[nH]1)C(=O)N2C [US12065447, Compound ZB-R-44], COCC#Cc1sc2c(c1C)SC[C@H](NC(=O)c1nnc(Cc3ccccc3)[nH]1)C(=O)N2C [US12065447, Compound ZB-R-84] is 21-fold lower in IC50: 4.08 nM for the first, 0.19 nM for the second.

Cc1c(C#Cc2cccnc2)sc2c1SC[C@H](NC(=O)c1nnc(Cc3ccccc3)[nH]1)C(=O)N2C [US12065447, Compound ZB-R-42] and Cc1c(C#Cc2ccncc2)sc2c1SC[C@H](NC(=O)c1nnc(Cc3ccccc3)[nH]1)C(=O)N2C [US12065447, Compound ZB-R-47] are within 1.5-fold of each other in IC50: 0.32 nM for the first, 0.39 nM for the second.

CN1C(=O)[C@@H](NC(=O)c2n[nH]c(Cc3ccccc3)n2)COc2ccc(C#Cc3cccnc3)cc21 [US12065447, Compound ZB-R-51] and CN1C(=O)[C@@H](NC(=O)c2n[nH]c(Cc3ccccc3)n2)COc2ccc(C#Cc3ccncc3)cc21 [US12065447, Compound ZB-R-52] cannot be ordered by IC50: under 0.5 nM for the first, 0.42 nM for the second.

COCC#Cc1ccc2c(c1)N(C)C(=O)[C@@H](NC(=O)c1nnc(Cc3ccccc3)[nH]1)CO2 [US12065447, Compound ZB-R-68] and Cc1cc([C@@](C)(O)C#Cc2ccc3c(c2)N(C)C(=O)[C@@H](NC(=O)c2nnc(Cc4ccccc4)[nH]2)CO3)no1 [US12065447, Compound ZB-R-81] are within 1.5-fold of each other in IC50: 0.2 nM for the first, 0.29 nM for the second.

First: Cc1cc([C@](C)(O)C#Cc2sc3c(c2C)SC[C@H](NC(=O)c2nnc(Cc4ccccc4)[nH]2)C(=O)N3C)no1 [US12065447, Compound ZB-R-89]
Second: Cc1c(C#CC(C)(C)O)sc2c1SC[C@H](NC(=O)c1nnc(Cc3ccccc3)[nH]1)C(=O)N2C [US12065447, Compound ZB-R-85]
The IC50 of the first is 1.6-fold higher: 1.7 nM for the first, 1.09 nM for the second.

CN1C(=O)[C@@H](NC(=O)c2ncc(Cc3ccccc3)o2)COc2ccc(C#Cc3cccnc3)cc21 [US12065447, Compound ZB-R-20] and CN1C(=O)[C@@H](NC(=O)c2cc(Cc3ccccc3)ccn2)COc2ccc(C#Cc3cccnc3)cc21 [US12065447, Compound ZB-R-25] cannot be ordered by IC50: under 0.5 nM for the first, under 2 nM for the second.

Going from Cc1c(C#Cc2cnn(C)c2)sc2c1SC[C@H](NC(=O)c1nnc(Cc3ccccc3)[nH]1)C(=O)N2C [US12065447, Compound ZB-R-39] to Cc1c(C#Cc2cncn2C)sc2c1SC[C@H](NC(=O)c1nnc(Cc3ccccc3)[nH]1)C(=O)N2C [US12065447, Compound ZB-R-82], the IC50 rises from 0.17 nM to 0.3 nM (1.8-fold).

First: Cc1c(C#Cc2ccccn2)sc2c1SC[C@H](NC(=O)c1nnc(Cc3ccccc3)[nH]1)C(=O)N2C [US12065447, Compound ZB-R-46]
Second: CN1C(=O)[C@@H](NC(=O)c2n[nH]c(Cc3ccccc3)n2)COc2ccc(C#Cc3ccccn3)cc21 [US12065447, Compound ZB-R-50]
The IC50 of the first is 21-fold higher: 5.39 nM for the first, 0.26 nM for the second. The second is the more potent here.

Compared with CN1C(=O)[C@@H](NC(=O)c2n[nH]c(Cc3ccccc3)n2)COc2ccc(C#CC3(O)COC3)cc21 [US12065447, Compound ZB-R-78], CN1C(=O)[C@@H](NC(=O)c2n[nH]c(Cc3ccccc3)n2)COc2ccc(C#CC(C)(C)O)cc21 [US12065447, Compound ZB-R-76] is 1.5-fold higher in IC50: 0.35 nM for the first, 0.54 nM for the second. The first is the more potent here.

CN1C(=O)[C@@H](NC(=O)c2n[nH]c(Cc3ccccc3)n2)COc2ccc(C#CC3CCOCC3)cc21 [US12065447, Compound ZB-R-54] and CN1C(=O)[C@@H](NC(=O)c2n[nH]c(Cc3ccccc3)n2)COc2ccc(C#Cc3cnn(C)c3)cc21 [US12065447, Compound ZB-R-53] are within 1.5-fold of each other in IC50: 0.1 nM for the first, 0.11 nM for the second.

CN1C(=O)[C@@H](NC(=O)c2ncn(Cc3ccccc3)n2)COc2ccc(C#Cc3cccnc3)cc21 [US12065447, Compound ZB-R-24] and Cc1cc([C@](C)(O)C#Cc2ccc3c(c2)N(C)C(=O)[C@@H](NC(=O)c2nnc(Cc4ccccc4)[nH]2)CO3)no1 [US12065447, Compound ZB-R-80] cannot be ordered by IC50: under 1 nM for the first, 0.31 nM for the second.
